Source: patent US10287311B2, “Modified fluorinated nucleoside analogues” (priority 2003, dated 2019)
Where two headings read alike, the source gives them in different places.

Legend:
[1] = target: HCV 1b NS5B polymerase, Wild-Type NS5B (Hepatitis C virus genotype 1b, UniProt Q9WMX2)
[2] = tested on: serum amino transferase levels; conditions: Gary L. Davis, 2000; cited from earlier work
[3] = tested on: HCV replicon system; conditions: Stuyver et al. 2003; cited from earlier work
[4] = Cytotoxicity assay (MTS), HepG2; format: cell-based; conditions: human, HepG2 cells
Description: (§1) 50 μl of 2× drug dilutions were added per well in a 96 well plate. Final concentrations of drug ranged from 1 to 100 μM. A “no drug” (media only) control was used to determine the minimum absorbance values and a “cells+media only” control was used for maximum absorbance value. A solvent control was also used. Cells were then added (PBM: 5×10^4 cells/well; CEM: 2.5×10^3 cells/well; Vero, HepG2, Huh-7, and Clone A: 5×10^3 cells/well) and incubated at 37° C. in a humidified 5% CO2 atmosphere for 3-5 days (PBM: 5 days; CEM: 3 days, all others: 4 days). After incubation, 20 μl of MTS dye was added from Cell Titer Aqueous One Solution Cell Proliferation Assay to each well and the plate was re-incubated for 2-4 hours. The absorbance (490 nm) was then read on an ELISA plate reader using the media only/no cell wells as blanks. Percent inhibition was found and used to calculate the CC50.

[5] = tested on: BVDV; assay: (BVDV) yield reduction assay; format: cell-based, bovine viral diarrhea virus; conditions: for EC90: Bovine viral diarrhea virus isolates and strains
Description: Madin-Darby Bovine Kidney (MDBK) cells were grown in Dulbecco's modified eagle medium supplemented with 10% horse serum and 100 μg/ml penicillin-streptomycin. Cells were seeded in a 96-well plate at 5×10^3 cells/well and incubated for 72h at 37° C. in a humidified 5% CO2 atmosphere. Cells were infected with either cytopathic (NADL strain) or noncytopathic (SD-1 strain) BVDV at a virus dilution of 10-2 and incubated for 45 min. Cell monolayers were washed three times with medium. Fresh medium-containing test compounds in dose response concentrations or ribavirin, as a positive control, were added to cultures and medium containing no drug was added to the no-drug controls. After 72h incubation, supernatant was collected and viral RNA was extracted using the QIAmp Viral RNA Mini Kit (Qiagen, CA). Viral load was determined by Q-RT-PCR using primers specific for either NADL or SD-1 (1).

[6] = tested on: RSV; assay: Antiviral activity, RSV; format: cell-based; conditions: human respiratory syncytial virus
[7] = Cytotoxicity assay (MTS), Huh7; format: cell-based; conditions: human, Huh7 cells
Description: as §1

[8] = Cytotoxicity assay (MTS), CloneA; format: cell-based; conditions: human, Clone A cells
Description: as §1

[9] = tested on: Human bone marrow cells, CFU-GM; assay: Bone marrow toxicity assay, CFU-GM; format: cell-based
Description: (§2) The culture assays for CFU-GM and BFU-E are performed using a bilayer soft agar or methylcellulose method. Drugs are diluted in tissue culture medium and filtered. After 14 to 18 days at 37° C. in a humidified atmosphere of 5% CO2 in air, colonies of greater than 50 cells are counted using an inverted microscope. The results are presented as the percent inhibition of colony formation in the presence of drug compared to solvent control cultures.

[10] = Cytotoxicity assay (MTS), MDBK; format: cell-based; conditions: bovine, MDBK cells
[11] = tested on: replicon HCV RNA; assay: HCV replicon assay (clone not specified)
[12] = tested on: HepG2 cells; assay: Mitochondria toxicity assay; format: cell-based; conditions: 7 days; for IC50: Homo sapiens, 168 h, read-out: mtDNA Synthesis (IC50)
Description: Fifty microliters of 2× drug dilutions were added per well in a 96 well plate. […] Ribosomal DNA levels were used to determine specific toxicity to mitochondria or generally cytotoxicity. HepG2 cells (5,000 cells/well at 50 μl) were added to the plate. The plate was incubated at 37° C. in a humidified 5% CO2 atmosphere for 7 days. After incubation, the supernatant was removed and stored for lactic acid quantification, and total DNA was extracted from cells as described in the RNeasy 96 handbook (February 1999), pages 22-23. No DNA digestions were performed, therefore total RNA and DNA were extracted. The extracted DNA was amplified and the change in mitochondrial DNA and ribosomal DNA for each sample was determined. The fold difference in mitochondrial DNA normalized for ribosomal DNA relative to control was calculated. Lactic acid quantification was performed by the D-Lactic Acid/L-Lactic acid test kit (Boehringer Mannheim/R-Biopharm/Roche). The total amount of lactic acid produced for each sample was found as well as the fold change in lactic acid production (% of lactic acid/% of rDNA) as described in the manufacturers instructions.

[13] = tested on: Human bone marrow cells, BFU-E; assay: Bone marrow toxicity assay, BFU-E; format: cell-based
Description: as §2

[14] = Cytotoxicity assay (MTS), all cell lines tested; format: cell-based; conditions: human, bovine, African green monkey, Clone A, Huh7, HepG2, MDBK, PBM, CEM, Vero and MRC-5 cells; summary in text over all cell lines
Description: as §1
In contrast is the relative toxicity of 2′-C-methyladenosine.

[15] = tested on: HBV; assay: Antiviral activity, HBV; format: cell-based; conditions: for EC90: Hepatitis B virus, HBV
[16] = in vitro; conditions: human
[17] = Pharmacokinetics in Rhesus monkeys; format: in vivo; conditions: single oral dose 33.3 mg/kg, Mean ± SD, preliminary
Description: FIG. 3 depicts the pharmacokinetics of β-D-(2′R)-2′-deoxy-2′-fluoro-2′-C-methylcytidine in Rhesus monkeys given a single dose (33.3 mg/kg) oral or intravenous dose of β-D-(2′R)-2′-deoxy-2′-fluoro-2′-C-methylcytidine.

[18] = tested on: Coronavirus 229E; assay: Antiviral activity, Coronavirus 229E; format: cell-based
[19] = Cytotoxicity assay (MTS), Vero; format: cell-based; conditions: African green monkey, Vero cells
Description: as §1

[20] = tested on: Yellow Fever virus; format: cell-based
[21] = tested on: Influenza B; assay: microbe, parasite or virus in culture; format: cell-based; conditions: MDCK
[22] = tested on: VEE; assay: organism not typed; format: cell-based; conditions: Vero
[23] = tested on: female Swiss mice
[24] = Cytotoxicity assay (MTS), PBM; format: cell-based; conditions: PBM cells
Description: as §1

[25] = tested on: Dengue Type 2; assay: Antiviral activity, Dengue Type 2 in Vero cells; format: cell-based, Dengue virus; conditions: for EC50: Dengue Type 2, Vero
[26] = tested on: Vero cells
[27] = tested on: Rhinovirus Type 2; assay: Antiviral activity, Rhinovirus Type 2 in KB cells; format: cell-based; conditions: for EC50: Enterovirus, Rhinovirus Type 2, KB
[28] = tested on: HIV; assay: microbe, parasite or virus in culture; format: cell-based
[29] = tested on: SARSCoV; assay: organism not typed; format: cell-based; conditions: Vero
[30] = Cytotoxicity (CPE, Neutral Red) in MDCK cells of the antiviral tests; conditions: dog, MDCK cells
[31] = tested on: MDCK cells; assay: as above; conditions: MDCK, Influenza B test
[32] = Cytotoxicity (CPE, Neutral Red) in KB cells of the antiviral tests; conditions: human
[33] = Cytotoxicity assay (MTS), MRC-5; format: cell-based; conditions: human, MRC-5 cells; MRC-5, MTS assay
[34] = in vitro; conditions: African green monkey
[35] = Cytotoxicity assay (MTS), CEM; format: cell-based; conditions: human, CEM cells
Description: as §1

[36] = tested on: West Nile virus; assay: Antiviral activity, West Nile virus in Vero cells; format: cell-based; conditions: for EC50: West Nile virus, West Nile, Vero
[37] = Hepatitis C virus, read-out: EC90 values, range for the replicon clones, range over replicon clones of Table 1
[38] = Neutral Red, read-out: EC50, NR

HCV 1b NS5B polymerase, Wild-Type NS5B, sequence (Q9WMX2 2420-3010): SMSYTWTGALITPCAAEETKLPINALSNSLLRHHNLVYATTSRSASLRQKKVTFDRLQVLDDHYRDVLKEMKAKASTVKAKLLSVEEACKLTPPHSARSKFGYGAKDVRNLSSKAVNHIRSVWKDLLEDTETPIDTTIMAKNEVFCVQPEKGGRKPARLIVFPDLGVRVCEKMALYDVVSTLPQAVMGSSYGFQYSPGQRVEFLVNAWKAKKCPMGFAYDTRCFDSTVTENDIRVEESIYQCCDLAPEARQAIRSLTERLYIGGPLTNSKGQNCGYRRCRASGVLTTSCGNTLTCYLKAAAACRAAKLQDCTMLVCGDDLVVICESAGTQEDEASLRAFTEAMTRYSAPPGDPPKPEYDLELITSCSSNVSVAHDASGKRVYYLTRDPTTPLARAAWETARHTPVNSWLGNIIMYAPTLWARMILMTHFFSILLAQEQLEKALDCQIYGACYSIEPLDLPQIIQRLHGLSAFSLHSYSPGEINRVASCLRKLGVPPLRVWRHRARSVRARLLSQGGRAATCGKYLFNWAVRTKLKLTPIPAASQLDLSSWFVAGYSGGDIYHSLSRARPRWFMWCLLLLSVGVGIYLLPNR

SMILES: C[C@@]1(F)[C@H](O)[C@@H](COP(=O)(O)OP(=O)(O)OP(=O)(O)O)O[C@H]1n1ccc(N)nc1=O
- IC50 ([1]; IC50, Wild-Type NS5B, batch 1): 1.7 ± 0.4 µM
- IC50 ([1]; IC50, Wild-Type NS5B, batch 2 and 3): 7.7 ± 1.2 µM
- IC50 ([1]; inhibitory concentration 50%, range, NS5B polymerase assay): 1.7 to 7.7 µM

SMILES: NC(=O)c1ncn([C@@H]2O[C@H](CO)[C@@H](O)[C@H]2O)n1 [Ribavirin, 1-β-D-ribofuranosyl-1-1,2,4-triazole-3-carboxamide]
- patients with serum amino transferase levels reduced to normal [2]: 40%
- specific anti-HCV activity in the HCV replicon system [3]: does not have specific anti-HCV activity

SMILES: C[C@@]1(O)[C@H](O)[C@@H](CO)O[C@H]1n1cnc2c(N)ncnc21 [2′-C-methyladenosine]
- CC50 at 4 days [4]: 58 µM
- activity on HCV surrogate model BVDV (in words) [5]: greater activity
- EC90 ([5]; BVDVcp): 1500 nM
- EC90 ([5]; BVDVncp): 1200 nM
- EC90 [6]: > 100 µM
- CC50 at 4 days [7]: 30 µM
- CC50 at 4 days [8]: 37 µM

SMILES: C[C@@]1(O)[C@H](O)[C@@H](CO)O[C@H]1n1ccc(N)nc1=O [2′-C-methylcytidine]
- CC50 at 4 days [4]: > 100 µM
- IC50 ([9]; CFU-GM): 13.2 µM
- activity on HCV surrogate model BVDV (in words) [5]: greater activity
- EC90 ([5]; BVDVcp): 2000 nM
- EC90 ([5]; BVDVncp): 500 nM
- CC50 at 4 days [10]: > 100 µM
- EC90 [11, 37]: 6.6 to 37.4 µM
- Lactic Acid Increase [12]: No effect ≥ 33 μM
- IC50 [12]: > 25 µM
- EC90 [6]: > 100 µM
- CC50 at 4 days [7]: > 100 µM
- IC50 ([13]; Bone marrow cell): 20.1 µM
- CC50 at 4 days [8]: > 100 µM
- CC50 [14]: 75 to 100 µM
- EC90 [15]: > 10 µM

SMILES: Cc1cn([C@H]2C[C@H](N=[N+]=[N-])[C@@H](CO)O2)c(=O)[nH]c1=O [AZT]
- IC50 [9]: 0.95 µM
- IC50 [13]: 0.08 µM

SMILES: C[C@@]1(F)[C@H](O)[C@@H](CO)O[C@H]1n1ccc(N)nc1=O
- CC50 [16]: > 100 µM
- AUC(0-t) ([17]; rhesus monkey, in vivo): 44.2 ± 22.2 µM·h
- half-life ([17]; rhesus monkey, in vivo, read-out: T ½ (converted)): 234 ± 6 min
- Bioavailability [17]: 21 ± 11 F %
- Cmax [17]: 9.6 ± 2.7 µM
- Tmax [17]: 2 ± 1 h
- activity on Corona virus (in words) [18]: lack of activity
- EC90 ([18]; Human coronavirus 229E): > 100 µM
- CC50 at 4 days [4]: 75 µM
- IC50 ([9]; CFU-GM): 93.9 µM
- CC50 at 4 days [19]: > 100 µM
- activity against Yellow Fever virus (in words) [20]: shows activity
- activity on HCV surrogate model BVDV (in words) [5]: lack of activity
- EC90 ([5]; BVDVcp): > 100000 nM
- EC90 ([5]; BVDVncp): > 22000 nM
- EC50 [21, 38]: > 100 µM
- EC50 ([21]; read-out: EC50, CPE): > 100 µM
- CC50 at 4 days [10]: > 100 µM
- EC90 ([11]; Hepatitis C virus, 96 h, read-out: EC90 (1-log reduction of replicon RNA), 4-days incubation / 96 hours, FIG. 1A (converted)): ~2.5 µM
- EC90 [11, 37]: 1.6 to 4.6 µM
- EC90 ([11]; read-out: EC90 (1-log reduction of replicon RNA) (converted), 4-days incubation / 96 hours, FIG. 1A): 5 µM
- EC50 ([22]; read-out: EC50, CPE): > 100 µM
- EC50 ([22]; read-out: EC50, NR): > 100 µM
- Lactic Acid Increase [12]: No effect ≥ 33 μM
- IC50 [12]: > 25 µM
- deaths during the 30-day study ([23]; female Swiss mice, intraperitoneal, days 0 to 5, 0, 3.3, 10, 33, 100 mg/kg): no mice died
- toxicity observed in the mice ([23]; mouse, in vivo): No significant toxicity
- CC50 at 5 days [24]: > 100 µM
- EC90 [6]: > 100 µM
- CC50 at 4 days [7]: > 100 µM
- IC50 ([13]; Bone marrow cell): 98.2 µM
- activity against Dengue virus (in words) [25]: shows activity
- EC50 ([25]; read-out: EC50, CPE): 55 µM
- EC50 ([25]; Dengue virus, Vero, Neutral Red, read-out: EC50, NR): > 100 µM
- EC50 ([25]; Dengue virus, Vero, read-out: EC50, CPE): 32 µM
- CC50 at 4 days [8]: > 100 µM
- CC50 ([26]; African green monkey): > 100 µM
- CC50 ([26]; read-out: CC50, CPE, Vero, SARSCoV test): > 100 µM
- CC50 ([26]; read-out: CC50, NR, Vero, SARSCoV test, Neutral Red): > 100 µM
- CC50 ([26]; read-out: CC50, NR, Vero, VEE test, Neutral Red): > 100 µM
- activity against Rhinovirus (in words) [27]: shows activity
- EC50 [27, 38]: 20 µM
- EC50 ([27]; read-out: EC50, CPE): 25 µM
- CC50 [14]: 75 to 100 µM
- activity on HIV (in words) [28]: lack of activity
- EC90 ([28]; Human immunodeficiency virus 1, HIV): > 100 µM
- EC50 ([29]; read-out: EC50, CPE): > 100 µM
- EC50 ([29]; read-out: EC50, NR): > 100 µM
- CC50 [30]: > 100 µM
- CC50 ([31]; read-out: CC50, CPE): > 100 µM
- CC50 ([31]; read-out: CC50, NR, Neutral Red): > 100 µM
- CC50 [32]: > 100 µM
- CC50 at 4 days [33]: > 100 µM
- CC50 [34]: > 100 µM
- activity on HBV (in words) [15]: lack of activity
- EC90 [15]: > 10 µM
- CC50 at 3 days [35]: > 100 µM
- activity against West Nile virus (in words) [36]: shows activity
- EC50 ([36]; NR = Neutral Red, read-out: EC50, NR): 12 µM
- EC50 ([36]; read-out: EC50, CPE): 32 µM
